The record followed here is patent publication US12358948B2, “Neurotensinergic agonists and methods of using same preventing or treating pain” (priority 2019, dated 2025).

Assay [1] addresses T1, hNTS1 receptor (Homo sapiens, UniProt P30989).
T1 construct: membranes prepared from them
Description: Competitive radioligand binding assay on the hNTS1 receptor. The conditions noted are these: displacement of 125I-[Tyr3]-NT, membranes of CHO-K1 cells expressing hNTS1; read-out: IC50 NTS1. The method, boiled down: (§1)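 IC50 values came from one-site competition curves against ¹²⁵I-[Tyr³]-NT after 60 min at 25 °C (pH 7.5 Tris, 0.2% BSA), with analogues at 10⁻¹¹–10⁻⁴ M and nonspecific binding set by 10⁻⁵ M NT(8-13). hNTS1 used 15 µg CHO-K1 membranes with […] tracer; hNTS2 used 50 µg 1321N1 membranes with […] tracer.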
(In general: Loss of bound radioactivity is the signal in a displacement assay; it reports binding, not function.)

Assay [2] addresses T2, hNTS2 receptor (Homo sapiens, UniProt O95665).
T2 construct: membranes prepared from them
In words: Competitive radioligand binding assay on the hNTS2 receptor. The conditions noted are these: for IC50: displacement of 125I-[Tyr3]-NT, membranes of 1321N1 cells expressing hNTS2, read-out: IC50 NTS2 (converted); for Selectivity: ratio IC50 for NTS1 : IC50 for NTS2. The method, boiled down:
as §1

*1 amine or outer side, *2 acyl side, *3 side chain or, on linkers, in order; H or OH if unused. Where a SMILES comes first, the peptide text is derived from it. Bridges are numbered along the chain shown (N, C = ends). [ ]: non-standard residue; d: D form. ξ: configuration not given here. ξαMeNle(6-ylidene) = CC(CCCC=[*:3])(N[*:1])C(=O)[*:2]; Phe(4-CF3) = N[C@@H](Cc1ccc(C(F)(F)F)cc1)C(=O)O; Phe(4-tBu) = CC(C)(C)c1ccc(C[C@H](N)C(=O)O)cc1; Phe(3-Br) = N[C@@H](Cc1cccc(Br)c1)C(=O)O; Phe(3-Cl) = N[C@@H](Cc1cccc(Cl)c1)C(=O)O; Phe(4-Br) = N[C@@H](Cc1ccc(Br)cc1)C(=O)O; Phe(4-CN) = N#Cc1ccc(C[C@H](N)C(=O)O)cc1; Phe(4-Cl) = N[C@@H](Cc1ccc(Cl)cc1)C(=O)O; Phe(3-I) = N[C@@H](Cc1cccc(I)c1)C(=O)O; 2Nal = N[C@@H](Cc1ccc2ccccc2c1)C(=O)O; hTyr = N[C@@H](CCc1ccc(O)cc1)C(=O)O; Hpg = N[C@H](C(=O)O)c1ccc(O)cc1; AllylGly = C=CC[C@H](N)C(=O)O; Orn = NCCC[C@H](N)C(=O)O; Dab = NCC[C@H](N)C(=O)O; Dap = NC[C@H](N)C(=O)O Where only a bound is given, the exact number is not on record here.

T1 sequence (P30989 whole entry): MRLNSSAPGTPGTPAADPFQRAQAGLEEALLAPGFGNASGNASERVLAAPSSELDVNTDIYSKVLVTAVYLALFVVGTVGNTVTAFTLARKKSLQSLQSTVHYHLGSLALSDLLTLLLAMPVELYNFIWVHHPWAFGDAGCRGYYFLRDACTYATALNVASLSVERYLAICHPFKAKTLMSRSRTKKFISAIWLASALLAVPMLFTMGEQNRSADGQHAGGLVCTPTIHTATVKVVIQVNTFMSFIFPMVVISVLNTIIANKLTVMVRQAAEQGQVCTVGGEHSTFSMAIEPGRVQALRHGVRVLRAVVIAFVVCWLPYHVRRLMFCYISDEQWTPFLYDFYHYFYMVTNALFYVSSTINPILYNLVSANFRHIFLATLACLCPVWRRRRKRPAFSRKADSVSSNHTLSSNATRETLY
T2 sequence (O95665 whole entry): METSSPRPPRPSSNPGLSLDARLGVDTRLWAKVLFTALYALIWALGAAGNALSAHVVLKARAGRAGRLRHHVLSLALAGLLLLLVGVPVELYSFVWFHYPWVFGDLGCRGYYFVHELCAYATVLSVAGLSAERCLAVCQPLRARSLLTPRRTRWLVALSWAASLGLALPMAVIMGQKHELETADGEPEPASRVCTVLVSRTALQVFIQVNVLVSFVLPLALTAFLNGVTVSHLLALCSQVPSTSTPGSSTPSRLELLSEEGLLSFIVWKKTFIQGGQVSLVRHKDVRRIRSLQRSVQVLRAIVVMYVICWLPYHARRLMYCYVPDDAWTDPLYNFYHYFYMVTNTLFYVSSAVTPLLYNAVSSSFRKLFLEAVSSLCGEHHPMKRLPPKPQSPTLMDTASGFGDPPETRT

Regarding `CC(C)C[C@H](NC(=O)[C@H](Cc1ccc(O)cc1)NC(=O)[C@@H]1CC(=O)NCC[C@H](N)C(=O)N[C@@H](CCCCN)C(=O)N[C@@H](CCCCN)C(=O)N1)C(=O)O` [compound 95, c[DabKKD]YL] (H-[Dab]KKDYL-OH; lactam 1-4), the concentration for half-maximal inhibition (IC50) (in general, the concentration at which inhibition is half-maximal) in assay [1] is greater than 100 µM. In assay [2], the IC50 was 8.81 µM and the Selectivity is listed as greater than 11.4.
Regarding `CC(C)C[C@H](NC(=O)[C@H](Cc1ccc(O)cc1)NC(=O)[C@@H]1CC(=O)NCCC[C@H](N)C(=O)N[C@@H](CCCCN)C(=O)N[C@@H](CCCCN)C(=O)N1)C(=O)O` [compound 96, c[OrnKKD]YL] (H-[Orn]KKDYL-OH; lactam 1-4), in assay [1], the half-maximal inhibitory concentration (IC50) was greater than 100 µM. For the same molecule, in assay [2], the IC50 is 1.93 µM and the Selectivity is recorded as greater than 51.8.
For `CC(C)C[C@H](NC(=O)[C@H](Cc1ccc(O)cc1)NC(=O)[C@@H]1CC(=O)NCCCC[C@H](N)C(=O)N[C@@H](CCCCN)C(=O)N[C@@H](CCCCN)C(=O)N1)C(=O)O` [compound 97, c[KKKD]YL] (H-KKKDYL-OH; lactam 1-4) the same measures were greater than 100 µM, 1.02 µM and greater than 98.4.
The matching figures for `CC(C)C[C@H](NC(=O)[C@H](Cc1ccc(O)cc1)NC(=O)[C@@H]1CCC(=O)NC[C@H](N)C(=O)N[C@@H](CCCCN)C(=O)N[C@@H](CCCCN)C(=O)N1)C(=O)O` [compound 98, c[DapKKE]YL] (H-[Dap]KKEYL-OH; lactam 1-4): greater than 100 µM, 8.18 µM and greater than 12.2.
Take `CC(C)C[C@H](NC(=O)[C@H](Cc1ccc(O)cc1)NC(=O)[C@@H]1CCC(=O)NCC[C@H](N)C(=O)N[C@@H](CCCCN)C(=O)N[C@@H](CCCCN)C(=O)N1)C(=O)O` [compound 99, c[DabKKE]YL] (H-[Dab]KKEYL-OH; lactam 1-4): the 50% inhibitory concentration (IC50) in assay [1] was greater than 100 µM. In assay [2], the IC50 was 11 µM and the Selectivity is greater than 9.
For `CC(C)C[C@H](NC(=O)[C@H](Cc1ccc(O)cc1)NC(=O)[C@@H]1CCC(=O)NCCC[C@H](N)C(=O)N[C@@H](CCCCN)C(=O)N[C@@H](CCCCN)C(=O)N1)C(=O)O` [compound 100, c[OrnKKE]YL] (H-[Orn]KKEYL-OH; lactam 1-4) the same measures were greater than 100 µM, 4.5 µM and greater than 22.
The matching figures for `CC(C)C[C@H](NC(=O)[C@H](Cc1ccc(O)cc1)NC(=O)[C@@H]1CCC(=O)NCCCC[C@H](N)C(=O)N[C@@H](CCCCN)C(=O)N[C@@H](CCCCN)C(=O)N1)C(=O)O` [compound 101, c[KKKE]YL] (H-KKKEYL-OH; lactam 1-4): greater than 100 µM, 0.889 µM and greater than 111.
For `CC(C)C[C@H](NC(=O)[C@H](Cc1ccc(O)cc1)NC(=O)[C@@H]1CNC(=O)C[C@H](N)C(=O)N[C@@H](CCCCN)C(=O)N[C@@H](CCCCN)C(=O)N1)C(=O)O` [compound 103, c[DKKDap]YL] (H-DKK[Dap]YL-OH; lactam 1-4) the same measures were greater than 100 µM, 9.1 µM and greater than 11.0.
In the case of `CC(C)C[C@H](NC(=O)[C@H](Cc1ccc(O)cc1)NC(=O)[C@@H]1CCNC(=O)CC[C@H](N)C(=O)N[C@@H](CCCCN)C(=O)N[C@@H](CCCCN)C(=O)N1)C(=O)O` [compound 104, c[EKKDab]YL] (H-EKK[Dab]YL-OH; lactam 1-4), the IC50 in assay [1] was greater than 100 µM. In assay [2], the IC50 is 16.5 µM and the Selectivity is greater than 6.1.
For the molecule `CC(C)C[C@H](NC(=O)[C@H](Cc1ccc(O)cc1)NC(=O)[C@@H]1CCNC(=O)C[C@H](N)C(=O)N[C@@H](CCCCN)C(=O)N[C@@H](CCCCN)C(=O)N1)C(=O)O` [compound 105, c[DKKDab]YL] (H-DKK[Dab]YL-OH; lactam 1-4), the IC50 in assay [1] is greater than 100 µM. In assay [2], the half-inhibitory concentration (IC50) was 1.45 µM and the Selectivity is recorded as greater than 67.0.
For `CC(C)C[C@H](NC(=O)[C@H](Cc1ccc(C(C)(C)C)cc1)NC(=O)[C@@H]1CC=CC[C@H](N)C(=O)N[C@@H](CCCCN)C(=O)N[C@@H](CCCCN)C(=O)N1)C(=O)O` [compound 110, c[G(All)KKG(All)]F(4-tbu)L] (H-[AllylGly]KK[AllylGly][Phe(4-tBu)]L-OH; staple 1-4) the same measures were greater than 100 µM, 0.0402 µM and greater than 2488.
The matching figures for `CC(C)C[C@H](NC(=O)[C@H](Cc1ccc(C(F)(F)F)cc1)NC(=O)[C@@H]1CC=CC[C@H](N)C(=O)N[C@@H](CCCCN)C(=O)N[C@@H](CCCCN)C(=O)N1)C(=O)O` [compound 111, c[G(All)KKG(All)]F(4-CF3)L] (H-[AllylGly]KK[AllylGly][Phe(4-CF3)]L-OH; staple 1-4): greater than 100 µM, 0.0479 µM and greater than 2087.
For `CC(C)C[C@H](NC(=O)[C@H](Cc1ccc2ccccc2c1)NC(=O)[C@@H]1CC=CC[C@H](N)C(=O)N[C@@H](CCCCN)C(=O)N[C@@H](CCCCN)C(=O)N1)C(=O)O` [compound 112, c[G(All)KKG(All)]A(naphtyl)L] (H-[AllylGly]KK[AllylGly][2Nal]L-OH; staple 1-4) the same measures were greater than 100 µM, 0.0836 µM and greater than 1196.
For the molecule `CC(C)C[C@H](NC(=O)[C@H](Cc1cccc(Cl)c1)NC(=O)[C@@H]1CC=CC[C@H](N)C(=O)N[C@@H](CCCCN)C(=O)N[C@@H](CCCCN)C(=O)N1)C(=O)O` [compound 113, c[G(All)KKG(All)]F(3-chloro)L] (H-[AllylGly]KK[AllylGly][Phe(3-Cl)]L-OH; staple 1-4), in assay [1], the IC50 was greater than 100 µM. Further, in assay [2], the half-maximal inhibitory concentration (IC50) is 0.048 µM and the Selectivity was greater than 2084.
For `CC(C)C[C@H](NC(=O)[C@H](Cc1ccc(Cl)cc1)NC(=O)[C@@H]1CC=CC[C@H](N)C(=O)N[C@@H](CCCCN)C(=O)N[C@@H](CCCCN)C(=O)N1)C(=O)O` [compound 114, c[G(All)KKG(All)]F(4-chloro)L] (H-[AllylGly]KK[AllylGly][Phe(4-Cl)]L-OH; staple 1-4) the same measures were greater than 100 µM, 0.0406 µM and greater than 2466.
For the molecule `CC(C)C[C@H](NC(=O)[C@H](Cc1cccc(Br)c1)NC(=O)[C@@H]1CC=CC[C@H](N)C(=O)N[C@@H](CCCCN)C(=O)N[C@@H](CCCCN)C(=O)N1)C(=O)O` [compound 115, c[G(All)KKG(All)]F(3-bromo)L] (H-[AllylGly]KK[AllylGly][Phe(3-Br)]L-OH; staple 1-4), the half-inhibitory concentration (IC50) in assay [1] is greater than 100 µM. In addition, in assay [2], the half-maximal inhibitory concentration (IC50) was 0.0284 µM and the Selectivity is recorded as greater than 3523.
The matching figures for `CC(C)C[C@H](NC(=O)[C@H](Cc1cccc(I)c1)NC(=O)[C@@H]1CC=CC[C@H](N)C(=O)N[C@@H](CCCCN)C(=O)N[C@@H](CCCCN)C(=O)N1)C(=O)O` [compound 117, c[G(All)KKG(All)]F(3-iodo)L] (H-[AllylGly]KK[AllylGly][Phe(3-I)]L-OH; staple 1-4): greater than 100 µM, 0.0323 µM and greater than 3097.
For `CC(C)C[C@H](NC(=O)[C@H](Cc1ccc(C#N)cc1)NC(=O)[C@@H]1CC=CC[C@H](N)C(=O)N[C@@H](CCCCN)C(=O)N[C@@H](CCCCN)C(=O)N1)C(=O)O` [compound 118, c[G(All)KKG(All)]F(4-cyano)L] (H-[AllylGly]KK[AllylGly][Phe(4-CN)]L-OH; staple 1-4) the same measures were greater than 100 µM, 0.0578 µM and greater than 1729.
Take `CC(C)C[C@H](NC(=O)[C@@H](NC(=O)[C@@H]1CC=CC[C@H](N)C(=O)N[C@@H](CCCCN)C(=O)N[C@@H](CCCCN)C(=O)N1)c1ccc(O)cc1)C(=O)O` [compound 125] (H-[AllylGly]KK[AllylGly][Hpg]L-OH; staple 1-4): the IC50 in assay [1] was greater than 100 µM. Further, in assay [2], the IC50 was 1.8 µM and the Selectivity was found to be 56.
The matching figures for `CC(C)C[C@H](NC(=O)[C@H](CCc1ccc(O)cc1)NC(=O)[C@@H]1CC=CC[C@H](N)C(=O)N[C@@H](CCCCN)C(=O)N[C@@H](CCCCN)C(=O)N1)C(=O)O` [compound 126, c[G(All)KKG(All)]homoYL] (H-[AllylGly]KK[AllylGly][hTyr]L-OH; staple 1-4): greater than 100 µM, 0.0817 µM and 1224.
The matching figures for `NCCCC[C@@H]1NC(=O)CCC=CC[C@@H](C(=O)N[C@@H](Cc2ccc(O)cc2)C(=O)N[C@@H](CC2CCCC2)C(=O)O)NC(=O)[C@H](CCCCN)NC1=O` [compound 129, c[pK(pentenoyl)KG(All)]Y A(cyclopentyl)]: greater than 100 µM, 0.0139 µM and 7194.
The matching figures for `CC(C)C[C@H](NC(=O)[C@H](Cc1ccc(Br)cc1)NC(=O)C1(C)CCCC=CC[C@H](N)C(=O)N[C@@H](CCCCN)C(=O)N[C@@H](CCCCN)C(=O)N1)C(=O)O` (stereo partly drawn) [compound 130, c[G(All)KKG(alpha-Me-(4-pentenyl))]F(4-bromo)L] (H-[AllylGly]KK[ξαMeNle(6-ylidene)][Phe(4-Br)]L-OH; staple 1-4): greater than 100 µM, 0.0102 µM and 9843.
As to `CC(C)C[C@H](NC(=O)[C@H](Cc1ccc(Br)cc1)NC(=O)[C@@H]1CC=CCCC(=O)N[C@@H](CCCCN)C(=O)N[C@@H](CCCCN)C(=O)N1)C(=O)O` [compound 131, c[K(pentenoyl)KG(All)](4-bromo)L], in assay [1], the IC50 was greater than 100 µM. Also, in assay [2], the IC50 is 0.0274 µM and the Selectivity is 3650.
